From publication PMC9284121, “Florfenicol-Polyarginine Conjugates Exhibit Promising Antibacterial Activity Against Resistant Strains” (Frontiers in Chemistry, 2022) come the findings set out here.

In one assay the test system is S. aureus (ATCC 292130). Nature of the assay: microbe, parasite or virus in culture. It is filed as cell-based, Staphylococcus aureus. The note with it: Staphylococcus aureus, ATCC292130; S. aureus (ATCC 292130), MHB; read-out: MIC.
The test system of assay [1] is E. coli clinical strain 2018XJ30. Kind of assay: microbe, parasite or virus in culture. It is filed as cell-based, Escherichia coli. The settings on record: Escherichia coli; clinical E. coli 2018XJ30, MHB; read-out: MIC. As to the method: (§1) All the florfenicol-polyarginine conjugates were tested against Gram-positive and Gram-negative bacteria, including MRSA (ATCC 43300), S. aureus (ATCC 25923), E. coli (ATCC 25922), clinical strains of E. coli (2019XJ06, 2019XJ25, 2018XJ108, 2018XJ105, 2018XJ30) and clinical strains of florfenicol resistant E. coli (2017XJ30, 2019XJ20).
(§2) Gram-negative E. coli (ATCC 25922), clinical strains of E. coli (2019XJ06, 2019XJ25, 2018XJ108, 2018XJ105, 2018XJ30) and clinical strains of florfenicol resistant E. coli (2017XJ30, 2019XJ20) and Gram-positive MRSA (ATCC 43300) and S. aureus (ATCC 25923) were maintained in 50% glycerol at −80°C up to the time of use. The bacterial strains were cultured in Muller-Hinton broth (Guangdong Huan Kai Microbial Sci. &Tech. Co., Ltd. in China) media. Mueller-Hinton agar (Guangdong Huan Kai Microbial Sci. & Tech. Co., Ltd. in China) was used as growth medium in solid media.
(§3) CLSI guidelines were followed for determining MICs of all florfenicol-polyarginine conjugates by the broth microdilution method. The required bacterial (E. coli, S. aureus and MRSA) single colony was inoculated into Muller-Hinton broth (MHB) and cultured for 4–6 h. And then, the bacteria were adjusted to 10^6 CFU/ml in cultures. All compounds were prepared into a stock solution at a concentration of 0.1 mol/L with DMSO. The stock solutions were then diluted to required concentration (100, 50, 25, 12.5, 6.25, 3.125, 1.56, 0.78, 0.39 μmol/L) with MHB media. Subsequently, a 96 well plate was filled with these dilutions and 10^6 CFU/ml bacterial suspension. The diluted compounds of different concentrations (100 µl) were first added to 96 well plate, and then 100 µl bacterial dilutions (10^6 CFU/ml) was added. The negative and positive controls were 200 µl of MHB media and 100 µl of bacterial suspension combined with 100 µl of MHB media, respectively. The experiment of each compound was repeated three times, and each experiment was at least twice repeated. The 96 well plates were incubated at 37°C for 16–24 h. MIC indicated antibacterial activity. Florfenicol was used as a control drug.

Assay [2] has as its system E. coli clinical strain 2018XJ108. Kind of assay: microbe, parasite or virus in culture. The assay is classed as cell-based, Escherichia coli. The note with it: Escherichia coli; clinical E. coli 2018XJ108, MHB; read-out: MIC. As to the method:
as §1, §2, §3

The subject of assay [3] is E. coli clinical strain 2019XJ06. Nature of the assay: microbe, parasite or virus in culture. It is filed as cell-based, Escherichia coli. The note with it: Escherichia coli; clinical E. coli 2019XJ06, MHB; read-out: MIC. As to the method: as §1, §2, §3
Assay [4] relates to florfenicol resistant E. coli clinical strain 2017XJ30. Nature of the assay: microbe, parasite or virus in culture. The assay is classed as cell-based, Escherichia coli. The note with it: Escherichia coli; florfenicol resistant E. coli 2017XJ30, MHB; read-out: MIC. The protocol:
as §1, §2, §3

The test system of assay [5] is E. coli clinical strain 2018XJ105. Kind of assay: microbe, parasite or virus in culture. It is filed as cell-based, Escherichia coli. The note with it: Escherichia coli; clinical E. coli 2018XJ105, MHB; read-out: MIC. As to the method: as §1, §2, §3
Assay [6] has as its system E. coli clinical strain 2019XJ25. Kind of assay: microbe, parasite or virus in culture. The settings on record: Escherichia coli; clinical E. coli 2019XJ25, MHB; read-out: MIC. The assay is classed as cell-based, Escherichia coli. As to the method:
as §1, §2, §3

The test system of a further assay is E.coli (ATCC 25922). Kind of assay: microbe, parasite or virus in culture. The assay is classed as cell-based, Escherichia coli. The settings on record: Escherichia coli, ATCC25922; E.coli (ATCC 25922), MHB; read-out: MIC. The protocol:
as §1, §2, §3

Assay [7] relates to florfenicol resistant E. coli clinical strain 2019XJ20. Kind of assay: microbe, parasite or virus in culture. It is filed as cell-based, Escherichia coli. The settings on record: Escherichia coli; florfenicol resistant E. coli 2019XJ20, MHB; read-out: MIC. As to the method:
as §1, §2, §3

Assay [8] has as its system 10 strains tested (E. coli, S. aureus, MRSA, clinical E. coli strains). Nature of the assay: microbe, parasite or virus in culture. It is filed as cell-based. The settings on record: Escherichia coli; against the 10 strains tested; read-out: MIC. As to the method:
as §1, §2, §3

The subject of a further assay is MRSA (ATCC 43300). Kind of assay: microbe, parasite or virus in culture. It is filed as cell-based, methicillin-resistant S. aureus. The settings on record: Staphylococcus aureus; MRSA (ATCC 43300), MHB; read-out: MIC. The protocol: as §1, §2, §3
In another assay the test system is E. coli. Kind of assay: Propensity of bacterial resistance development (serial passage at 0.5 MIC). The assay is classed as cell-based, Escherichia coli. The protocol:
It is crucial to evaluate the potential emergence of resistance from these compounds. […] The process was repeated for 16 passages. […] However, E. coli became resistant to FFC after only a few days. Therefore, these conjugates can be to combat drug-resistant bacteria.
Compound E6 was used to evaluate the tendency of developing bacterial resistance towards the florfenicol-polyarginine conjugates. The control antibiotic florfenicol was chosen for E. coli. MIC of E6 and florfenicol for 24 h were determined against E. coli., and then 0.5 MIC of E6 and florfenicol was challenged repeatedly against E. coli. After the initial MIC experiment, serial passage was investigated by transferring the growing bacterial suspension at sub-MIC of the compounds (MIC/2) and MIC in every passage was determined again. The process was repeated for 16 passages. The MICs for E6 and florfenicol corresponding to days were draw into figure to determine the propensity of bacterial resistance development.

≈ marks a conversion by molar mass, not a printed value.

With `CS(=O)(=O)c1ccc([C@@H](OC(=O)CCCCC(=O)O)[C@@H](CF)NC(=O)C(Cl)Cl)cc1` [Compound C3], the MIC (in the assay on S. aureus (ATCC 292130); in [1]; in assay [2]; in assay [3]; in [4]; in [5]) was greater than 100 µM in each case. Further, the MIC (in [6]; in the assay on E.coli (ATCC 25922); in assay [7]; in [8]; in the assay on MRSA (ATCC 43300)) was greater than 100 µM in each case.

As to `CS(=O)(=O)c1ccc([C@@H](OC(=O)CCCC(=O)O)[C@@H](CF)NC(=O)C(Cl)Cl)cc1` [Compound C2, florfenicol glutarate], the MIC (in the assay on S. aureus (ATCC 292130); in assay [1]; in [2]; in assay [3]; in assay [4]; in [5]) was greater than 100 µM throughout. The MIC (in [6]; in the assay with E.coli (ATCC 25922); in assay [7]; in assay [8]; in the assay with MRSA (ATCC 43300)) was greater than 100 µM in each case.

For the compound `CS(=O)(=O)c1ccc([C@@H](O)[C@@H](CF)NC(=O)C(Cl)Cl)cc1` [Florfenicol], the “change of MIC after 16 passages” value in the assay with E. coli was 2 fold. Also, the MIC in the assay on S. aureus (ATCC 292130) was 6.25 µM (≈ 2.24 µg/mL); in [1] it was 6.25 µM (≈ 2.24 µg/mL); in assay [2], 6.25 µM (≈ 2.24 µg/mL); in assay [3], 6.25 µM (≈ 2.24 µg/mL); in assay [4] it was greater than 100 µM; in assay [5], 6.25 µM (≈ 2.24 µg/mL). The MIC was 6.25 µM (≈ 2.24 µg/mL) in [6], 6.25 µM (≈ 2.24 µg/mL) with E.coli (ATCC 25922), greater than 100 µM in [7] and 6.25 µM (≈ 2.24 µg/mL) with MRSA (ATCC 43300).

On to `CS(=O)(=O)c1ccc([C@@H](OC(=O)CCC(=O)O)[C@@H](CF)NC(=O)C(Cl)Cl)cc1` [Compound C1, florfenicol succinate], for which the MIC (with S. aureus (ATCC 292130); in assay [1]; in [2]; in [3]; in assay [4]; in assay [5]) was greater than 100 µM throughout. Further, the MIC (in assay [6]; with E.coli (ATCC 25922); in assay [7]; in assay [8]; in the assay on MRSA (ATCC 43300)) was greater than 100 µM each time.
